Reference: patent US20250136617A1 (The Regents of the University of Colorado, A Body Corporate, priority 2022, published 2025)
Entries after “also recorded” stand apart in the source; their conditions may differ. Like-named read-outs stand apart in the source and are kept apart here.

Target: CXCR4 (Homo sapiens, UniProt P61073)
Assay: Adenylate cyclase (cAMP inhibition) assay, thiadiazine scaffold, CHO-CXCR4-cAMP cells
Type: cell-based
Design: host or cells: CHO-K1
Procedure: Tango™ CXCR4-bla U2OS Cells (Invitrogen; K1779) were used for (β-arrestin recruitment assays and maintained as a monolayer culture in McCoy's 5a (Corning; 10-050-CV) supplemented with 10% dialyzed Fetal Bovine Serum (Gibco; 26400-044), 0.1 mM MEM Non-essential amino acids solution, 25 mM HEPES solution (Corning; 25-060-CI), 1 mM Sodium Pyruvate (Gibco; 11360-070), 200 μg/mL Zeocin selection reagent (Gibco; R25001), 50 μg/mL Hygromycin B (Gibco, 10687010), and 100 μg/mL Geneticin (G418 Sulfate) (Gibco, 10131035). U2OS cells were subcultured twice weekly by 0.05% Trypsin-EDTA treatment (Corning; 25-051-CI) and passaged to continue exponential growth phase for cell signaling assays. All cell cultures were maintained in cell culture incubators at 37° C. with 5% CO2. CHO-K1 CXCR4 cells (DiscoverX, Fremont, CA, USA) were used for cAMP inhibition assays and maintained as a monolayer culture in DMEM/F12 (Corning; 10-091-CV) supplemented with 10% Fetal Bovine Serum (Corning; 35-011-CV) and 100IU penicillin, […] streptomycin sulfate (Corning; 30-002-CI) and […] G418 (Gibco; 101310350. Cells were subculture 2 times weekly by o.o5% Trypsin-EDTA treatment (Corning; 25-051-CI) and passaged to continue exponential growth phase for cell signaling assays. All cell cultures were maintained in cell culture incubators at 37° C. with 5% CO2.CEM-CCRF cells (ATCC CCL-119) were used in both the migration and calcium flux assays and were cultured in growth media consisting of RPMI 1640 (Corning; 10-040-CV) supplemented with 10% Fetal Bovine Serum (Corning; 35-011-CV), and 100 IU penicillin, […] streptomycin sulfate (Corning; 30-002-CI). […] Cells were harvested for use in migration and calcium flux assays at 2.0×10^6 cells/mL to 2.5×10^6 cells/mL and resuspended in assay media to desired density for respective experiments.
Compounds and DMSO normalization to 0.5% were dispensed using the TECAN D300e digital dispenser into the wells of a 384-well white wall clear-bottom assay plate (Griener 781983). […] This cell suspension was dispensed at 20 μL per well into the assay plate and allowed to incubate overnight for approximately 18 hrs with compounds in cell culture incubator at 37° C. with 5% CO2. Following incubation, DMEM/F12 media was gently removed, then the Lance Ultra cAMP Kit (Perkin Elmer; TRF0263) was performed according to the supplier guidelines. […] Time-resolved fluorescence was measured on the BMG LABTECH CLARIOstar Plus (BMG LABTECH Inc., Cary, NC) using the Lance Ultra cAMP kit guidelines for excitation and emission. […]

CXCR4, sequence (P61073 whole entry): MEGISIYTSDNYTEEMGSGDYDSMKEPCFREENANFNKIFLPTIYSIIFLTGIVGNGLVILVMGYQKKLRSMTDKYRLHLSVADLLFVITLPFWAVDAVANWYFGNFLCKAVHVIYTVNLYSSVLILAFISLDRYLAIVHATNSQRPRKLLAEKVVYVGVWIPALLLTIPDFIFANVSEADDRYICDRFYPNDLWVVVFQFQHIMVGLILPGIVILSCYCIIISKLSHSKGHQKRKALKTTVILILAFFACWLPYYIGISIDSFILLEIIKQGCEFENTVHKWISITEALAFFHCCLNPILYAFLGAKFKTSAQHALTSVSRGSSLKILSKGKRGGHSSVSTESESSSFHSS

CCOc1ccccc1-c1nnc2n1N=C(c1ccc(N3CCCC3)cc1)CS2 [Thiadiazine Entry 23, 3-(2-ethoxyphenyl)-6-(4-(pyrrolidin-1-yl)phenyl)-7H-[1,2,4]triazolo[3,4-b][1,3,4]thiadiazine]
cAMP inhibition activity (listed as UCUF-965): dose-dependent partial agonist response; also recorded: dose-dependent partial inhibition of forskolin-stimulated cAMP production; also recorded: did not inhibit the action of SDF-1α; also recorded: doubling the Emax
cAMP log EC50 (log value, n=3): −7.3±0.2 M
Emax (read-out: cAMP maximal response (Emax) of SDF-1α potentiated by, pretreatment with 0.1 μM UCUF-965): 110%
Emax (read-out: cAMP maximal response (Emax) of SDF-1α potentiated by, pretreatment with 1 μM UCUF-965): 201%
Emax (read-out: cAMP maximal response (Emax) of SDF-1α potentiated by, pretreatment with 5 μM UCUF-965): 209%
